# Results from PMC7567334 (Environmental Health Perspectives, 2020).
# Legend:
# [1] = ref Schebb et al. 2012, cited from earlier work
# TRα and TRβ [2] = experiment: GH3.TRE-Luc TR reporter assay, agonist setup; format: cell-based, rat; conditions: 1 μM; vs 0.1% DMSO
# [3] = tested on: fathead minnow (Pimephales promelas); conditions: exposure to 10 μg/L; ref Ankley et al. 2010; cited from earlier work
# human (h)AR = molecular target: T1, human (h)AR (Homo sapiens, UniProt P10275); experiment: AR-EcoScreen hAR transcriptional activation assay, antagonist setup (500 pM DHT); format: cell-based; conditions: vs 0.1% DMSO with 500 pM DHT
# T1 sequence (P10275 1-920): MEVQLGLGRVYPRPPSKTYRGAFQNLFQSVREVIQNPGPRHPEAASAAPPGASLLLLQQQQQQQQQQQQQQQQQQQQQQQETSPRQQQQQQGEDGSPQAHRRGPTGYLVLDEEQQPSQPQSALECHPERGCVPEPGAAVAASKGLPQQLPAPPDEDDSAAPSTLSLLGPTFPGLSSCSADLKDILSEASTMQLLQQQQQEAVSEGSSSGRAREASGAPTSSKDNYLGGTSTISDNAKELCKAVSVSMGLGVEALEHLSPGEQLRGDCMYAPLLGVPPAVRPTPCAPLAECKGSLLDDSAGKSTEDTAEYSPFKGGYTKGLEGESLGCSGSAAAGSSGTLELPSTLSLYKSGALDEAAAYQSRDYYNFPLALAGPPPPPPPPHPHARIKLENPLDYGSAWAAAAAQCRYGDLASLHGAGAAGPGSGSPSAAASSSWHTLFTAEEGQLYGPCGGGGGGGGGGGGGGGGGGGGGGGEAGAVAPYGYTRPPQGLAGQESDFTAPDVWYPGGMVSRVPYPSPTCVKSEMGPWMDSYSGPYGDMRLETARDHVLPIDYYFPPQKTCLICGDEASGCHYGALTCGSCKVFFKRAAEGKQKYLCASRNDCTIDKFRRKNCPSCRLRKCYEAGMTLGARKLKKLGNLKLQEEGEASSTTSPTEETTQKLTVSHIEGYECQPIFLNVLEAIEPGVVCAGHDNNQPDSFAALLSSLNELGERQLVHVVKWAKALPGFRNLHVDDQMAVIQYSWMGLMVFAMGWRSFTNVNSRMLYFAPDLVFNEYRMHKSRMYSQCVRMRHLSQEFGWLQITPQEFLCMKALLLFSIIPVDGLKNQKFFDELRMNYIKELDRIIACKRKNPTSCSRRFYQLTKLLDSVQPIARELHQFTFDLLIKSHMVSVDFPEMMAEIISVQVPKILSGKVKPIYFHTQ
# TRα and TRβ [4] = experiment: GH3.TRE-Luc TR reporter assay, antagonist setup (0.25 nM T3); format: cell-based, rat
compound,measurement,setting,value
"O=C(Nc1ccc(Cl)cc1)Nc1ccc(Cl)c(Cl)c1 [Triclocarban, 1-(4-Chlorophenyl)-3-(3,4-dichlorophenyl) urea]",time of plasma peak after exposure,[1],≤ 48 h
same,peak plasma concentration,"[1]; six healthy volunteers, triclocarban-containing soaps",23 to 530 nM
same,baseline TR-mediated transcriptional activity lower than vehicle control (agonist setup),TRα and TRβ [2],> 50%
same,effect in fathead minnow,[3],increased masculinization
same,higher AR RTA than spike-in control,human (h)AR; 1 μM,30.7%
same,higher AR RTA than spike-in control,human (h)AR; 2.5 μM,39.4%
same,lower TR RTA than spike-in control,"TRα and TRβ [4]; 1 μM, vs 0.1% DMSO with 0.25 nM T3",44.3%
same,"TR antagonist activity, call",TRα and TRβ [4]; GH3.TRE-Luc,Antagonist
same,concentration with TR antagonist activity,TRα and TRβ [4]; GH3.TRE-Luc,1 µM
